# Values of other authors in patent publication US8911765B2, “Biodegradable, polymer coverings for breast implants” (Tyrx, Inc., priority 2007, dated 2014).
# Details: rabbit, in vivo
smiles,measurement,value
"O=S(=O)([O-])CCS.[Na+] [Mesna, sodium 2-mercaptoethane sulfonate]",capsule formation around implants,reduce capsule formation
